Laboratory results: patent publication US10399939B2, “Tetrahydronaphthalene estrogen receptor modulators and uses thereof” (Genentech, Inc., priority 2015, dated 2019)

Molecular target: ER-alpha (WT) (Homo sapiens (Human), UniProt P03372)
Assay: Breast Cancer Cell ERa High Content Fluorescence Imaging Degradation Assay (ER-alpha MCF7 HCS)
Format: cell-based
Conditions: MCF7 breast cancer cells; for ER-alpha (WT) MCF7 HCS (S inf): plateau of the maximal effect (ERa degradation), DMSO and 5 nM Fulvestrant define 0% and 100% changes in ESR1
Method: Example 901: Breast Cancer Cell ERa High Content Fluorescence Imaging Degradation Assay
MCF7 breast cancer cells were seeded on day 1 at a density of 10,000 cells per well in 384 well poly-lysine coated tissue culture plate (Greiner # T-3101-4), in 50 µL/well RPMI (phenol red free), 10% FBS (Charcoal stripped), containing L-glutamine. […] Compounds and controls were dispensed using a Labcyte Echo acoustic dispenser to dispense compounds with a pre-defined serial dilution (1.8×, 10 point, in duplicate) and appropriate backfill and control compounds (final total volume transferred was 417.5 nL and compound dispense volume ranges from 2.5 nL to 417.5 nL; 0.84% DMSO (v/v) final), ultimately producing a concentration range from 0.05 nM to 835 nM. Cell plates were incubated at 37° C., for 4 hours. Fixation and permeabilization were carried out using a Biotek EL406 plate washer and dispenser as follows. Cells were fixed by addition of 15 μL of 16% paraformaldehyde (Electron Microscopy Sciences #15710-S) directly to the 50 μL cell culture medium in each well using the peristaltic pump 5 μL cassette on a Biotek EL406 (final concentration of formaldehyde was 3.7% w/v). Samples were incubated 30 minutes. Well contents was aspirated and 50 μL/well of Phosphate Buffered Saline (PBS) containing 0.5% w/v bovine serum albumen, 0.5% v/v Triton X-100 (Antibody Dilution Buffer) was added to each well. Samples were incubated for 30 minutes. Well contents were aspirated and washed 3 times with 100 μL/well of PBS. Immunofluorescence staining of estrogen receptor alpha (ESR1) was carried out using a Biotek EL406 plate washer and dispenser as follows. The well supernatant was aspirated from the wells and 25 μL/well of anti-ESR1 mAb (F10) (Santa Cruz sc-8002) diluted 1:1000 in Antibody Dilution Buffer was dispensed. Samples were incubated for 2 hours at room temperature. Samples were washed 4 times with 100 μL/well of PBS. 25 μL (microliters)/well of secondary antibody solution (Alexafluor® 488 conjugate anti-mouse IgG (LifeTechnologies #A21202) diluted 1:1000 and Hoechst 33342 1 μg/ml diluted in Antibody Dilution Buffer) were dispensed into each well. Samples were incubated for 2 hours at room temperature. Samples were washed 3 times with 100 μL/well of PBS using a Biotek EL406. Quantitative fluorescence imaging of ESR1 was carried out using a Cellomics Arrayscan V® (Thermo). Fluorescence images of the samples (Channel 1: XF53 Hoechst (DNA stain); Channel 2: XF53 FITC (ESR1 stain)) were acquired using a Cellomics VTI Arrayscan using the Bioapplication “Compartmental Analysis” using the auto-exposure (based on DMSO control wells) setting “peak target percentile” set to 25% target saturation for both channels. Channel 1 (DNA stain) was used to define the nuclear region (Circ). Measurements of “Mean_CircAvgIntCh2”, which is the Alexafluor 488 fluorescence intensity (ESR1) within the nuclear region, was measured on a per cell basis and averaged over all the measured cells. Data analysis was carried out using Genedata Screener Software, with DMSO and 5 nM Fulvestrant treated samples being used to define the 0% and 100% changes in ESR1. The “Robust Fit” method was used to define the inflexion point of curve (EC50) and the plateau of the maximal effect (Sinf).

[1] = 4 hours incubation, inflexion point of curve

ER-alpha (WT), sequence (P03372 whole entry): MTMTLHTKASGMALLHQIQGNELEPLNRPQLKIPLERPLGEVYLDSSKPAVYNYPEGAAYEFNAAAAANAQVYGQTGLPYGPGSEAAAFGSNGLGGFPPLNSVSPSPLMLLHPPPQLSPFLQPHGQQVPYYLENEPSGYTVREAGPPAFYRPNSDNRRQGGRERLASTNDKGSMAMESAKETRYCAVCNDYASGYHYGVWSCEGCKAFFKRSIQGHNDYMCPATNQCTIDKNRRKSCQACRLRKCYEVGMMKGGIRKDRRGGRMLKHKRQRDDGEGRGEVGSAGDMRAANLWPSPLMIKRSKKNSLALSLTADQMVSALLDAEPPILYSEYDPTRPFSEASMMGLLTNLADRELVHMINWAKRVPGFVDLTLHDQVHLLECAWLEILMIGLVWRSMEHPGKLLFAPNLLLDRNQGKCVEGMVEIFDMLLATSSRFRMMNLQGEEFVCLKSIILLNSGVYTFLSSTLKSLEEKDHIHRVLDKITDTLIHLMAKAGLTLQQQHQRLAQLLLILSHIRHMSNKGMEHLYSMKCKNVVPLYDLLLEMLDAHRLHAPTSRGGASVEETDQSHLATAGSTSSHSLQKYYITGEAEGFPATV

For `Oc1ccc2c(c1)CC[C@@H](c1ccccc1)[C@H]2c1ccc(NCCN2CC(CF)C2)cc1` [Compound 138, (5S,6R)-5-(4-((2-(3-(fluoromethyl)azetidin-1-yl)ethyl)amino)phenyl)-6-phenyl-5,6,7,8-tetrahydronaphthalen-2-ol], the EC50 [1] was 0.203 nM and the “ER-alpha (WT) MCF7 HCS (S inf)” value was −89.89%.
`Oc1ccc2c(c1)CCC1(CCCC1)[C@@H]2c1ccc(OCCN2CC(CF)C2)cc1` [Compound 122, (R)-1′-(4-(2-(3-(fluoromethyl)azetidin-1-yl)ethoxy)phenyl)-3′,4′-dihydro-1′H-spiro[cyclopentane-1,2′-naphthalen]-6′-ol] was tested, and the EC50 [1] was 0.451 nM and the “ER-alpha (WT) MCF7 HCS (S inf)” value was −99.2%.
With `Oc1ccc2c(c1)CC[C@H](c1ccccc1)[C@@H]2c1ccc(OCCN2CCC(CF)C2)cc1` (stereo partly drawn) [Compound 111, (5R,6S)-5-(4-(2-(3-(fluoromethyl)pyrrolidin-1-yl)ethoxy)phenyl)-6-phenyl-5,6,7,8-tetrahydronaphthalen-2-ol] the EC50 [1] was 47 nM and the “ER-alpha (WT) MCF7 HCS (S inf)” value was −55%.
In the case of `Oc1cccc2c1[C@@H](c1ccc(OCCN3CC(CF)C3)cc1)[C@@H](c1ccccc1)CC2` [Compound 135, (7S,8R)-8-(4-(2-(3-(fluoromethyl)azetidin-1-yl)ethoxy)phenyl)-7-phenyl-5,6,7,8-tetrahydronaphthalen-1-ol], the EC50 [1] is reported as 29.8 nM and the “ER-alpha (WT) MCF7 HCS (S inf)” value is reported as −82%.
In the case of `Oc1ccc2c(c1)CC[C@H](c1ccccc1)[C@@H]2c1ccc(OCCN2CC(CF)C2)cc1` [Compound 101, (1R,2S)-1-[4-[2-[3-(fluoromethyl)azetidin-1-yl]ethoxy]phenyl]-2-phenyl-tetralin-6-ol], the EC50 [1] is reported as 0.371 nM and the “ER-alpha (WT) MCF7 HCS (S inf)” value is reported as −100%.
With `Oc1ccc2c(c1)CC[C@H](C1CCC(F)(F)CC1)[C@@H]2c1ccc(OCCN2CC(CF)C2)cc1` [Compound 110, (5R,6R)-6-(4,4-difluorocyclohexyl)-5-(4-(2-(3-(fluoromethyl)azetidin-1-yl)ethoxy)phenyl)-5,6,7,8-tetrahydronaphthalen-2-ol] the EC50 [1] was 0.177 nM and the “ER-alpha (WT) MCF7 HCS (S inf)” value was −98.2%.
For `Oc1ccc2c(c1)CC[C@H](c1ccccc1)[C@@H]2c1ccc(OCCN2CC(C(F)F)C2)cc1` [Compound 118, (5R,6S)-5-(4-(2-(3-(difluoromethyl)azetidin-1-yl)ethoxy)phenyl)-6-phenyl-5,6,7,8-tetrahydronaphthalen-2-ol], the EC50 [1] was 0.184 nM and the “ER-alpha (WT) MCF7 HCS (S inf)” value was −93.6%.
For `Oc1ccc2c(c1)CC[C@@H](c1ccccc1)[C@H]2c1ccc(OCCN2CC(CF)C2)cc1F` [Compound 119, (5R,6R)-5-(2-fluoro-4-(2-(3-(fluoromethyl)azetidin-1-yl)ethoxy)phenyl)-6-phenyl-5,6,7,8-tetrahydronaphthalen-2-ol], the EC50 [1] was 16.5 nM and the “ER-alpha (WT) MCF7 HCS (S inf)” value was −85%.
For `Oc1ccc2c(c1)CC[C@@H](c1ccccc1)[C@H]2c1ccc(OCCN2CC(CF)C2)nc1` [Compound 128, (5R,6R)-5-(6-(2-(3-(fluoromethyl)azetidin-1-yl)ethoxy)pyridin-3-yl)-6-phenyl-5,6,7,8-tetrahydronaphthalen-2-ol], the EC50 [1] was 12.5 nM and the “ER-alpha (WT) MCF7 HCS (S inf)” value was −84%.
With `C[C@H](CN1CC[C@@H](CF)C1)Oc1ccc([C@H]2c3ccc(O)cc3CC[C@H]2c2ccccc2)cc1` [Compound 126, (5S,6R)-5-(4-(((R)-1-((R)-3-(fluoromethyl)pyrrolidin-1-yl)propan-2-yl)oxy)phenyl)-6-phenyl-5,6,7,8-tetrahydronaphthalen-2-ol] the EC50 [1] was 0.675 nM and the “ER-alpha (WT) MCF7 HCS (S inf)” value was −97.1%.
In the case of `Oc1ccc2c(c1)CC[C@@H](c1ccccc1)[C@H]2c1ccc(OCCN2CCC(CF)C2)cc1` (stereo partly drawn) [Compound 114, (5S,6R)-5-(4-(2-(3-(fluoromethyl)pyrrolidin-1-yl)ethoxy)phenyl)-6-phenyl-5,6,7,8-tetrahydronaphthalen-2-ol], the EC50 [1] is reported as 0.1 nM and the “ER-alpha (WT) MCF7 HCS (S inf)” value is reported as −94.2%.
For `Oc1ccc2c(c1)CC[C@H](c1ccccc1)[C@@H]2c1ccc(OC2CN(CCCF)C2)cc1` [Compound 130, (5R,6S)-5-(4-((1-(3-fluoropropyl)azetidin-3-yl)oxy)phenyl)-6-phenyl-5,6,7,8-tetrahydronaphthalen-2-ol], the EC50 [1] was 0.107 nM and the “ER-alpha (WT) MCF7 HCS (S inf)” value was −99.3%.
With `C[C@@H](COc1ccc([C@H]2c3ccc(O)cc3CC[C@H]2c2ccccc2)cc1)N1CC[C@@H](CF)C1` [Compound 124, (5S,6R)-5-(4-((S)-2-((R)-3-(fluoromethyl)pyrrolidin-1-yl)propoxy)phenyl)-6-phenyl-5,6,7,8-tetrahydronaphthalen-2-ol] the EC50 [1] was 0.0371 nM and the “ER-alpha (WT) MCF7 HCS (S inf)” value was −93.4%.
With `CS(=O)(=O)c1ccc([C@@H]2CCc3cc(O)ccc3[C@@H]2c2ccc(OCCN3CC(CF)C3)cc2)cc1` [Compound 115, (5S,6R)-5-(4-(2-(3-(fluoromethyl)azetidin-1-yl)ethoxy)phenyl)-6-(4-(methylsulfonyl)phenyl)-5,6,7,8-tetrahydronaphthalen-2-ol] the EC50 [1] was 39.4 nM and the “ER-alpha (WT) MCF7 HCS (S inf)” value was −75%.
For `Oc1ccc2c(c1)CC[C@@H](c1ccccc1)[C@H]2c1ccc(NC2CN(CCCF)C2)cc1` [Compound 131, (5S,6R)-5-(4-((1-(3-fluoropropyl)azetidin-3-yl)amino)phenyl)-6-phenyl-5,6,7,8-tetrahydronaphthalen-2-ol], the EC50 [1] was 13.8 nM and the “ER-alpha (WT) MCF7 HCS (S inf)” value was −35%.
With `Oc1ccc2c(c1)CC[C@H](c1ccccc1)[C@@H]2c1ccc(NC2CN(CCCF)C2)cc1` [Compound 132, (5R,6S)-5-(4-((1-(3-fluoropropyl)azetidin-3-yl)amino)phenyl)-6-phenyl-5,6,7,8-tetrahydronaphthalen-2-ol] the EC50 [1] was 0.029 nM and the “ER-alpha (WT) MCF7 HCS (S inf)” value was −99.9%.
In the case of `Oc1ccc2c(c1)CC[C@H](C1CCOCC1)[C@@H]2c1ccc(OCCN2CC(CF)C2)cc1` [Compound 107, (5R,6R)-5-(4-(2-(3-(fluoromethyl)azetidin-1-yl)ethoxy)phenyl)-6-(tetrahydro-2H-pyran-4-yl)-5,6,7,8-tetrahydronaphthalen-2-ol], the EC50 [1] is reported as 16.4 nM and the “ER-alpha (WT) MCF7 HCS (S inf)” value is reported as −87.8%.
With `Oc1ccc2c(c1)CC[C@H](c1ccccc1)[C@@H]2c1ccc(OCCN2CCCC2)cc1` [lasofoxifene, (5R,6S)-6-phenyl-5-(4-(2-(pyrrolidin-1-yl)ethoxy)phenyl)-5,6,7,8-tetrahydronaphthalen-2-ol, reference compound] the “ER-alpha (WT) MCF7 HCS (S inf)” value was −73.5%.
With `Oc1ccc2c(c1)CC[C@H](c1ccccc1)[C@@H]2c1ccc(OCCN2CC(CCl)C2)cc1` [Compound 112, (5R,6S)-5-(4-(2-(3-(chloromethyl)azetidin-1-yl)ethoxy)phenyl)-6-phenyl-5,6,7,8-tetrahydronaphthalen-2-ol] the EC50 [1] was 50.9 nM and the “ER-alpha (WT) MCF7 HCS (S inf)” value was −35%.
For `Oc1ccc2c(c1)CC[C@H](c1ccccc1)[C@@H]2c1ccc(NCCN2CC(CF)C2)cc1` [Compound 137, (5R,6S)-5-(4-((2-(3-(fluoromethyl)azetidin-1-yl)ethyl)amino)phenyl)-6-phenyl-5,6,7,8-tetrahydronaphthalen-2-ol], the EC50 [1] was 186 nM and the “ER-alpha (WT) MCF7 HCS (S inf)” value was −80%.
`Oc1ccc2c(c1)CC[C@@H](c1ccccc1)[C@H]2c1ccc(OC2CN(CCCF)C2)cc1` [Compound 129, (5S,6R)-5-(4-((1-(3-fluoropropyl)azetidin-3-yl)oxy)phenyl)-6-phenyl-5,6,7,8-tetrahydronaphthalen-2-ol] was tested, and the “ER-alpha (WT) MCF7 HCS (EC50)” value [1] was >0.10 µmol.
For `Oc1ccc2c(c1)CC[C@@H](c1ccccc1)[C@H]2c1ccc(OCCN2CC(CF)C2)cc1` [Compound 102, (1S,2R)-1-[4-[2-[3-(fluoromethyl)azetidin-1-yl]ethoxy]phenyl]-2-phenyl-tetralin-6-ol], the EC50 [1] was 8.12 nM and the “ER-alpha (WT) MCF7 HCS (S inf)” value was −94.7%.
For `Oc1cccc2c1[C@H](c1ccc(OCCN3CC(CF)C3)cc1)[C@H](c1ccccc1)CC2` [Compound 136, (7R,8S)-8-(4-(2-(3-(fluoromethyl)azetidin-1-yl)ethoxy)phenyl)-7-phenyl-5,6,7,8-tetrahydronaphthalen-1-ol], the EC50 [1] was 186 nM and the “ER-alpha (WT) MCF7 HCS (S inf)” value was −80%.
